# Measurements reported in article PMC3310947 (Chemical biology & drug design, 2012).
# Tests used:
# [1] = molecular target: T1, mouse Dvl1 PDZ domain (mDvl1 residues 247-341) (Mus musculus, UniProt P51141, C338A); assay: […]-HSQC NMR chemical shift titration; format: binding
# T1 sequence (P51141 247-341 C338A): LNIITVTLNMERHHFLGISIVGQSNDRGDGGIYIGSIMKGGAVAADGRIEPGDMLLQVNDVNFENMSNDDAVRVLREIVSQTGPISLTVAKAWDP
# [2] = molecular target: T1, mouse Dvl1 PDZ domain (mDvl1 residues 247-341); assay: fluorescence polarization competition with Rox-DprC; format: binding
Kd [1],Ki [2],SMILES
1.83 µM,,Cc1ccc(C[C@H](NC(=O)c2cccc(C#N)c2)C(=O)N[C@@H](CC(C)C)C(=O)O)cc1 [J01-012]
2.27 µM,4.2 ± 0.46 µM,Cc1ccc(C[C@H](NC(=O)c2cccc(F)c2)C(=O)N[C@@H](CC(C)C)C(=O)O)cc1 [J01-007]
7.67 µM,,CC(C)C[C@H](NC(=O)[C@H](Cc1ccccc1)NC(=O)c1cccc(F)c1)C(=O)O [J02-001]
2.96 µM,3.5 ± 0.21 µM,Cc1ccc(C[C@H](NC(=O)c2cccc(C)c2)C(=O)N[C@@H](CC(C)C)C(=O)O)cc1 [J01-015]
3.49 µM,,CC(C)C[C@H](NC(=O)[C@H](Cc1ccccc1)NC(=O)c1ccc(F)cc1)C(=O)O [J02-002]
,1.5 ± 0.52 µM,Cc1ccc(C[C@H](NC(=O)c2cc(C)c(F)c(F)c2)C(=O)N[C@@H](CC(C)C)C(=O)O)cc1 [J01-017a]
